The values below come from US20070258893A1, “Compositions and methods for imaging expression of cell surface receptors” (priority 2003, published 2007).

Entries after “also recorded” stand apart in the source; their conditions may differ. Positions of bridges follow the written chain, without caps; N, C: chain ends. Non-standard residues stand in square brackets, D forms with d. Residues, ends and D or L forms follow the SMILES beside them. No end group written: not given here. 2Nal = N[C@@H](Cc1ccc2ccccc2c1)C(=O)O; Cit = NC(=O)NCCC[C@H](N)C(=O)O

Data set [1] deals with CXCR4/SDF-1 mediated invasion of MDA-MB-231. Description: Matrigel invasion assay with SDF-1 as chemoattractant. In kind it is cell-based. The note with it: 100 nM. The method, then:
Invasive cells penetrate matrigel and end up on the other side of the matrigel.
(§1) A salt form of 6-18-10, WZ811S, was tested in a matrigel invasion assay to measure its ability to inhibit CXCR4/SDF-mediated invasion. […] Thus, Perkin-Elmer's LANCE cAMP assay kit (Cat # AD0262) that was based on time-resolved fluorescence resonance energy transfer (TR-FRET) was tested. […] The results were measured in Perkin-Elmer's Envision multi-label microplate reader (384-wells) with conditions of flash energy area=low, flash energy level=239, counting cycle=1 ms, and ex/em=340 nm/665 nm.

Data set [2] deals with HUVECs. Description: SDF-1 induced endothelial tubular formation. In kind it is cell-based. The note with it: SDF-1 for 18 hours, pretreatment, P<0.001.
For data set [3] the following is noted: in vivo; cited from earlier work.
The target in data set [4] is T1, CXCR4 (Homo sapiens, UniProt P61073). To be noted: cited from earlier work.
In data set [5] the target is T1, CXCR4. Description: Competitive binding assay against biotin-labeled TN14003 on MDA-MB-231 cells (immunofluorescence). Also noted: endogenous in cells; host or cells: MDA-MB-231. To be noted: cells pre-incubated with compound. The method, then: FIG. 4A illustrates the structure of TN14003-Biotin. […] 20,000 cells of MDA-MB-231 were seeded in 8-well slide chamber two days before experiments. Various concentration of the selected compounds (10,100, and 1000 nM) were added to the separate wells, incubated for 10 minutes at room temperature, and the cells were fixed in 4% of ice-cold paraformaldelyde. The slides were subsequently incubated with 50 ng/ml of biotin-TN14003 and streptavidin-Rhomdamine, followed by sytox blue. CXCR4—Red, nuclei-blue (sytox blue)
Screening of Small Molecule CXCR4 Antagonists With a Competitive Binding Assay Against Biotin-Labeled TN14003: T140 analogs, including TN14003, bind to the ligand binding site on CXCR4, blocking the CXCR4/SDF-1 interaction, and intervening in the progression of cancer metastasis. The discovery and development of effective, orally available small molecules also remains a major focus for many medicinal chemistry programs. […] Currently, the metal-chelating cyclams and bicyclams represent the sole class of non-peptide molecules that are known to block CXCR4. […] Trent, et al. Lipid Bilayer Simulations of XCXR4 with Inverse Agonists and Weal Partial Agonists. J. Biol. Chem. 2003 Nov. 21; 278(47):47136-44. […] This information was used to create a library of compounds with multiple, basic nitrogens throughout the molecular framework that are structurally different from AMD3100. […]

The test system of data set [6] is CXCR4-mediated cancer metastasis. The experiment in a line: CXCR4-mediated cancer metastasis in vivo. The note with it: TN14003 three times weekly injection; WZ811S more frequent injection schedule.
Data set [7] concerns metastatic 686LN cells. The experiment in a line: Experimental head and neck cancer metastasis model (tail vein injection), FDG-PET imaging. To be noted: metastatic 686LN cells intravenously, nude mice. In kind it is in vivo.
Data set [8] concerns metastatic 686LN cells. Description: Orthotopic SCCHN xenograft model (BLI, CD31 immunostaining, H&E of lungs). Type of data set: in vivo, nude mice. The text has this:
FIG. 2 illustrates that CXCR4 antagonists block tumor malignancy in head and neck cancer. […] Subclones of squamous cell carcinoma of the head and neck (SCCHN) cell line 686LN were generated by passing these cells through several serial metastases in the SCCHN orthotopic animal model. The sub-populations of 686LN cells included one group with elevated metastatic activity and another group with non-metastatic parental cells. […] FIG. 2C is a scanned image of bioluminescence imaging of orthotopic xenografts of head and neck cancer treated with TN 14003. Metastatic 686LN cells (5×10^5) were injected into the neck area of nude mice, and they were divided into two groups, one with TN14003 treatment and the other with control peptide injection. 1 mg/kg of TN14003 was injected three times weekly i.p. TN14003 treatment started after tumors were established (day 8). Primary tumors were immunostained by using anti-CD31 antibody, and the microvessel density was calculated by averaging CD31-positive microvessels of primary tumors from each group (n=4) as illustrated in the bar graph of FIG. 2D. FIG. 2E is a scanned image of representative H & E stainings (original magnification, ×10) from two mice from each group.
The anti-tumor efficacy of the CXCR4 antagonist as also tested in an orthotopic SCCHN animal model. The metastatic cells were stably transfected with the luciferase gene (pGL2-control from Promega) for in vivo tracking purposes. These cells (500,000 cells) were injected into the submandibular subcutaneous tissue to the mylohyoid muscle of the nude mice to create an orthotopic SCCHN xenograft, and the tumor growth was followed using non-invasive Bioluminescence Imaging (BLI). […] The intraperitoneal treatment of TN14003 started 7 days after the tumor injection and lasted for 23 days compared to that of the control peptide. […]

On data set [9], the source says: Additionally, a synthetic 14-mer peptide blocked the CXCR4 receptor binding to its ligand SDF-1 and inhibited CXCR4/SDF-1 mediated invasion in vitro and metastasis in vivo with a higher specificity than anti-CXCR4 antibodies (R & D Systems). The anti-invasion and anti-metastasis activity of this peptide correlated well with their inhibitory activity on SDF-1α binding to CXCR4. This antagonist is proven safe by proliferation assay, animal histology, and hemopoietic progenitor cell colony formation.

In data set [10] the test system is CXCR4/SDF-1 mediated invasion of MDA-MB-231. To be noted: Liang et al.; cited from earlier work.
In data set [11] the test system is HIV. The note with it: cited from earlier work; for SI=CC50/EC50: MT4 cells; for EC50: read-out: concentration required for 50% protection of HIV-induced cytopathogenicity in MT4 cells (EC50). For orientation: Cytopathic effects are the visible damage that an infection or toxin causes in cultured cells.
Data set [12] deals with MT4 cells. The note with it: cited from earlier work.
The test system of data set [13] is CXCR4/SDF-1. The experiment in a line: LANCE cAMP assay (TR-FRET), SDF-1-induced cAMP reduction. To be noted: SDF-1 0-100 ng/ml. In kind it is cell-based. The method, then: as §1
For orientation: In TR-FRET formats the signal depends on donor and acceptor labels being close together.

Data set [14] has as its target T2, CXCR4 receptor on tumor cells (Homo sapiens, UniProt P61073).
T2 construct: endogenous in cells; probably MDA-MB-231 as in the drug screen
The experiment in a line: Immunofluorescence competition with biotin-labeled CXCR4 antagonist and streptavidin-conjugated rhodamine. Type of data set: binding. To be noted: labeled via HYNIC and [19F]-FBA. The text has this:
FIG. 11A illustrates sub-fractions of a mixture of TN14003-HYNIC and FBA. After the conjugation steps, the mixture was fractionated with increasing acetonitrile concentration in a mobile phase. Mass spectroscopy data confirmed that fraction 6 contained TN14003-HYNIC, while the fraction […] contained 19F-labeled TN14003 (final product). Fractions 6 and 9 are indicated by arrows on the graph.
Using biotin-labeled CXCR4 antagonist along with streptavidin-conjugated rhodamine, the binding efficiency of the fluorine 19-labeled CXCR4 antagonist to CXCR4 receptor on tumor cells was determined and compared to that of the unlabeled CXCR4 antagonist in immunofluorescence as was done for drug screening, described above. Cells incubated with only streptavidin-conjugated rhodamine (negative control) were compared to cells incubated with both the biotin-labeled CXCR4 antagonist and streptavidin-conjugated rhodamine (positive control). When equal amounts of unlabeled CXCR4 antagonist were added into the biotin-labeled antagonist mixture, the red fluorescence decreased due to the competition between biotin-labeled antagonist and unlabeled antagonist. The same amount of red fluorescence decrease was seen when fluorine 19-labeled antagonist was added to the biotin-labeled antagonist mixture (FIG. 11B). […]

T1 sequence (P61073 whole entry): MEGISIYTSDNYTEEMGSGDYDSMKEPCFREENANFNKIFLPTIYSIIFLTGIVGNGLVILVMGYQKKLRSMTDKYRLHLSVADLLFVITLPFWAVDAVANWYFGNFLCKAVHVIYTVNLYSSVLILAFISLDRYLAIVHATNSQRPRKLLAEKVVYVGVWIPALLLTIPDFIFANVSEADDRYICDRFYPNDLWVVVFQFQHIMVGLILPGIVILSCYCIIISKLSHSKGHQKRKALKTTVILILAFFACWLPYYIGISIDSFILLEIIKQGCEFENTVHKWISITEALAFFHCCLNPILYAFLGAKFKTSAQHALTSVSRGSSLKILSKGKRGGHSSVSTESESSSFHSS
T2 sequence (P61073 whole entry): as above

For `c1cc(CN2CCCNCCNCCCNCC2)ccc1CN1CCCNCCNCCCNCC1` [AMD3100], the “blocking SDF-1-induced invasion” value in data set [1] is listed as “not as effective as WZ811S”. The “SDF-1 induced tubular network formation” value in [2] is listed as “could not”. In data set [3], the clinical safety outcome was “withdrawn due to cardiotoxicity”. Besides, the “functional character at CXCR4” value in data set [4] is given as “weak partial agonist”. In addition, the “concentration needed to compete against biotin-labeled TN14003” value in data set [5] was determined as 10 µM.
In general, CC50 refers to the concentration at which the toxic effect on the cells reaches its halfway point. Turning to `N=C(N)NCCC[C@H](NC(=O)[C@@H]1CSSC[C@H](NC(=O)[C@H](Cc2ccc3ccccc3c2)NC(=O)[C@H](CCCNC(=N)N)NC(=O)[C@@H](N)CCCNC(=N)N)C(=O)N[C@@H](Cc2ccc(O)cc2)C(=O)N[C@@H](CCCNC(N)=O)C(=O)N[C@@H](CCCCN)C(=O)N[C@H](CCCCN)C(=O)N2CCC[C@H]2C(=O)N[C@@H](Cc2ccc(O)cc2)C(=O)N[C@@H](CCCNC(=N)N)C(=O)N[C@@H](CCCNC(N)=O)C(=O)N1)C(N)=O` [TN14003, H-Arg-Arg—NaI—Cys-Tyr—Cit-Lys—DLys—Pro-Tyr-Arg—Cit—Cys-Arg—NH2] (H-RR[2Nal]CY[Cit]K[dK]PYR[Cit]CR-NH2; disulfide 4-13), the “SDF-1 induced tubular network formation” value in [2] was “inhibited tubular network formation”. For the same compound, the “blocking of CXCR4-mediated metastasis in vivo” value in data set [6] is given as “completely inhibited CXCR4-mediated cancer metastasis in vivo”. Also, the “lung metastasis (FDG-PET, confirmed by histology)” value in data set [7] is “prevented lung metastasis of SCCHN; also recorded: inhibited lung metastasis”. Further, the “primary tumor growth (bioluminescence imaging)” value in data set [8] (1 mg/kg, i.p., pre-established tumors) was “suppressed even the primary tumor”. In addition, the “tumor angiogenesis / microvessel density (CD31 immunostaining)” value in data set [8] (1 mg/kg, i.p., primary tumors) is “significantly blocked tumor angiogenesis at the primary site”. In addition, the “lung metastases (H&E)” value in data set [8] (orthotopic model, treated vs control group) is reported as “reduction in the metastases”. In addition, in data set [9], the safety result is reported as “proven safe”. The “blocking SDF-1-mediated invasion versus anti-CXCR4 antibody” value in data set [10] is recorded as “more effectively than an anti-CXCR4 antibody”. Moreover, in data set [11], the “SI=CC50/EC50” value is given as 680,000 and the EC50 is 0.0006 µM. For the same compound, in [12], the CC50 is 410 µM and the “cytotoxicity compared to T140” value was “far less cytotoxic”.
Turning to “H-Arg-Arg—NaI—Cys-Tyr-Arg-Lys—DLys—Pro-Tyr-Arg—Cit—Cys-Arg—OH (H-RR[2Nal]CYRK[dK]PYR[Cit]CR-OH; ends and bridges not checked) [T140, reference compound]”, in [11], the “SI=CC50/EC50” value is on record as 17,879 and the EC50 is 0.0033 µM. The CC50 in data set [12] was 59 µM.
For the compound “SDF-1: stromal cell-derived factor 1, ligand of CXCR4”, the “EC80 of absorption increase at 665 nM” value in data set [13] was found to be 0.03 µg/mL.
For the compound “^19F-labeled TN14003: TN14003-HYNIC conjugated with non-radioactive [19F]-fluorobenzaldehyde (RR[2Nal]CY[Cit]K[dK]PYR[Cit]CR-NH2; disulfide 4-13; also: HYNIC linker conjugated as hydrazone with [19F]-fluorobenzaldehyde, attachment site not given here)”, the “blocking of binding of biotin-labeled TN14003 to CXCR4 on cell surface by preincubation” value in data set [14] is listed as “completely blocked”. Besides, the “binding efficiency to CXCR4 relative to unlabeled antagonist (red fluorescence decrease)” value in data set [14] (equal amounts) is “the same as that of unlabeled (original) antagonist”.
